Entries after “also recorded” stand apart in the source; their conditions may differ. Where a SMILES comes first, the peptide text is derived from it. The star is where a group is joined. Myristoyl = CCCCCCCCCCCCCC(=O)*
Legend:
[1] = tested on: DMNTI; test: Immunofluorescence of DMNTI in MDA-MB-231 cells; type: cell-based, human; settings: 50 μM, 72 hours
Description: Cells were treated with 50 μM P1, P2, P3 or P4 (synthesized in accordance with Example 5) or vehicle (water) for 72 hours. […] Confocal laser scanning microscopy was used to measure the […] and TCFI as described above. At least 20 individual cells were analyzed per sample.

[2] = tested on: cell surface vimentin (CSV); test: Immunofluorescence of CSV in MDA-MB-231 cells, Example 14; type: cell-based, human; settings: 50 μM, 72 hours
Description: (§1) 1×10^4 MDA-MB-231 cells were treated with 50 μM P1, P2, P3 (synthesized in accordance with Example 5) or vehicle (water) for 72 hours. Cells were fixed with 3.7% formaldehyde and permeabilized with 2% Triton-X-100, then probed with a primary rabbit antibody to PD-L2, primary goat antibody to PD-L1 and primary mouse antibody to CSV, followed by the corresponding secondary antibody conjugated to anti-mouse Alexa-Fluor 568, anti-goat Alexa-Fluor 633 or anti-rabbit Alexa-Fluor 488. Confocal laser scanning microscopy was used to measure the TNFI and TCFI as described above. At least 20 individual cells were analyzed per sample.

[3] = tested on: PD-1; test: Immunofluorescence of PD-1 in Jurkat T-cells; type: cell-based; settings: 50 μM, 72 hours, relative to the control
Description: 1×10^4 Jurkat T-cells were seeded onto coverslips in 12 well plates with DMEM media. Cells were treated with 50 μM P1, P2, P3 (synthesized in accordance with Example 5) or vehicle (water) for 72 hours. Cells were fixed with 3.7% formaldehyde and permeabilized with 2% Triton-X-100, then probed with a primary mouse antibody to PD-1 directly conjugated to Alexa-Fluor 647. Confocal laser scanning microscopy was used to measure the TNFI, TCFI and Fn/c as described above. At least 20 individual cells were analyzed per sample.

[4] = molecular target: T1, p300 (Homo sapiens, UniProt Q09472); test: Immunofluorescence of p300 localization in MDA-MB-231 cells; type: cell-based; settings: 50 μM
T1 construct: endogenous in cells; host or cells: MDA-MB-231
T1 sequence (Q09472 whole entry): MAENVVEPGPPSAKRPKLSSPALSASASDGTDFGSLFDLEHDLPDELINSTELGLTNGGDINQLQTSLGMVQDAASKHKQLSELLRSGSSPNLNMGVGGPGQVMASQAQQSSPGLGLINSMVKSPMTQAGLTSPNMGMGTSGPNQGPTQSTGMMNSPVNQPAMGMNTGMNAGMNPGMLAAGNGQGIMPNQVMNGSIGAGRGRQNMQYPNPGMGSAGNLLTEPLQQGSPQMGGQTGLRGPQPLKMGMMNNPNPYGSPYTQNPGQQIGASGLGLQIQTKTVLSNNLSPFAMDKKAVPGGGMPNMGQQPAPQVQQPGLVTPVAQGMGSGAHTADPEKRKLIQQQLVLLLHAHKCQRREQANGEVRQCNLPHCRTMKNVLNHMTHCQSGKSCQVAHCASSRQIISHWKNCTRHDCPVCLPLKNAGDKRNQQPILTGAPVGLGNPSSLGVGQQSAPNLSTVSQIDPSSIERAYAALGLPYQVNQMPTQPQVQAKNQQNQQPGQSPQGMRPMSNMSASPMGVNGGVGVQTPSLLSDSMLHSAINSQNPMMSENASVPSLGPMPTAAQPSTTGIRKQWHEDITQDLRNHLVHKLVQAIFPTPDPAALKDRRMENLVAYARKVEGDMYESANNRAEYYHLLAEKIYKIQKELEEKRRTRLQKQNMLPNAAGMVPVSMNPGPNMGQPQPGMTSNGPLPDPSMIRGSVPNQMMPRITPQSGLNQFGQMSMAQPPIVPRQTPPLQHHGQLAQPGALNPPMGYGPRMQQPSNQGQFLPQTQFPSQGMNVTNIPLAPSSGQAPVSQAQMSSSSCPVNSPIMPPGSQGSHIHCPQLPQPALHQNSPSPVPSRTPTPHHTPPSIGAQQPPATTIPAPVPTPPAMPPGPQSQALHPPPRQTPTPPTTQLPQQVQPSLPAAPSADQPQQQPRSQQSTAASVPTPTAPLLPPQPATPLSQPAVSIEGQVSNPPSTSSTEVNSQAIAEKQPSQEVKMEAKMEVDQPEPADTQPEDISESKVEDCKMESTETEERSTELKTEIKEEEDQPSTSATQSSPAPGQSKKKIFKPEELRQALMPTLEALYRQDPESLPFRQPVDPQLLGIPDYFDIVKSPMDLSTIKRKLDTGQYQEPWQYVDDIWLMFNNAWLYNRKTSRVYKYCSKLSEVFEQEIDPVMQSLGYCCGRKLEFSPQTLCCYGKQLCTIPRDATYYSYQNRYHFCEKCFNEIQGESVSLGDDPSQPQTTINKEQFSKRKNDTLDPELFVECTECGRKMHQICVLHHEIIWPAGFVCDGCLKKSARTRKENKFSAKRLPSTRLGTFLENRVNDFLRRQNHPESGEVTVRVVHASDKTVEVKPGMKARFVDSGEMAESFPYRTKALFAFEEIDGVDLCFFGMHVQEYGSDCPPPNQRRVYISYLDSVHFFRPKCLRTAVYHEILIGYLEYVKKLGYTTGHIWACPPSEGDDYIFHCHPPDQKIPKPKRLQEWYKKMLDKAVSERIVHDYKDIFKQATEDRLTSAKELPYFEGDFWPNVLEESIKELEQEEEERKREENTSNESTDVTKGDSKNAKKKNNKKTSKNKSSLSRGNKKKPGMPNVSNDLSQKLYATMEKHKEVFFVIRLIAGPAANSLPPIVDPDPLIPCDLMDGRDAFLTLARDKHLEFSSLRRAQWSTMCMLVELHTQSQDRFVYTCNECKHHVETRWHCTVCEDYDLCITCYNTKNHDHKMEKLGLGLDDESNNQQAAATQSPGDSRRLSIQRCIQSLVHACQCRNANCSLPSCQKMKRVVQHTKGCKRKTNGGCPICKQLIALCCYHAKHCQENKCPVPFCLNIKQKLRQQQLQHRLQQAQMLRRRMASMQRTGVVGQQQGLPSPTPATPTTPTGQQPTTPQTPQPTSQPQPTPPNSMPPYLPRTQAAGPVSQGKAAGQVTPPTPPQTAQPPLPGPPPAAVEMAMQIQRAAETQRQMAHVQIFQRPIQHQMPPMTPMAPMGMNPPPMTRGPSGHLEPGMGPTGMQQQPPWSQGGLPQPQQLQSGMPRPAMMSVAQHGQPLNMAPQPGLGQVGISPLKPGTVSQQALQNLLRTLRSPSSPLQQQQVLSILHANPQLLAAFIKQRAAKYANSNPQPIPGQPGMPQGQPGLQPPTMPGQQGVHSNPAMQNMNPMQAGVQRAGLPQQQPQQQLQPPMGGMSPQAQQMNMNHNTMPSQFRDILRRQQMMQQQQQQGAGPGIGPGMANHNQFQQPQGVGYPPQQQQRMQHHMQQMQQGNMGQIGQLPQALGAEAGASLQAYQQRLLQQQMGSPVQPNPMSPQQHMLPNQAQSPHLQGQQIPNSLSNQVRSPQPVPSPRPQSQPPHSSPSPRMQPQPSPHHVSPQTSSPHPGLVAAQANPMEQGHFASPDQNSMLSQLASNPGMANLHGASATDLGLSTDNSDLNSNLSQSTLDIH
Description: (§2) The effect of P1, P2, P3 and P4 (synthesized in accordance with Example 5) on p300 localization was examined using confocal laser scanning microscopy. […] Cover slips were mounted on glass microscope slides with ProLong Diamond Antifade reagent (Life Technologies). Protein targets were localized by confocal laser scanning microscopy as described above. TNFI and PCC(r) were calculated using ImageJ software as previously described.

[5] = tested on: acetylated PD-L1 and p300; test: Colocalization (PCC(r)) of acetylated PD-L1 and p300 in MDA-MB-231 cells; type: cell-based, human; settings: 50 μm
Description: as §2

[6] = tested on: PD-L1; test: Immunofluorescence of PD-L1 in MDA-MB-231 cells, Example 9; type: cell-based, human; settings: 50 μM, 72 hours
Description: (§3) 1×10^4 MDA-MB-231 cells were seeded onto coverslips in 12 well plates with DMEM media. Cells were treated with 50 μM P1, P2, P3 or P4 (synthesized in accordance with Example 5) or vehicle (water) for 72 hours. Cells were fixed with 3.7% formaldehyde and permeabilized with 2% Triton-X-100, then probed with primary mouse antibodies to CSV, DMNT1, H3K9me3 or 5-methylcytosine; primary goat antibodies to SNAI1, SETDB1 or ABCB5; or primary rabbit antibodies to PD-L1, EGFR, EHMT2; followed by the corresponding secondary antibody conjugated to anti-mouse Alexa-Fluor 568, anti-goat Alexa-Fluor 633 or anti-rabbit Alexa-Fluor 488. Confocal laser scanning microscopy was used to measure the TFI, TNFI and TCFI as described above. At least 20 individual cells were analyzed per sample.

[7] = tested on: CD44^hiCD24^lo CSCs in MCF7 cells; test: FACS analysis of CD44^hiCD24^lo CSCs in MCF7 cells; type: cell-based, human; settings: 50 μM peptide, 48 hours
Method in brief: (§4)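 FACS of adherent cells stained with anti-CD44, anti-CD24 and Hoechst 33342 gave the percentage of CD44hiCD24lo cells among Hoechst-negative live events, plus viability as live over single-cell events.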

[8] = tested on: MDA-MB-231 cells; type: cell-based, human; settings: 50 μM peptide, 48 hours, n = 1
Source text: Non-adherent cells were removed during the washing steps.

[9] = tested on: SNAI1; test: Immunofluorescence of SNAI1 in MDA-MB-231 cells; type: cell-based, human; settings: 50 μM, 72 hours
Description: as §3

[10] = tested on: MCF7 cells; settings: MCF7 cells, 50 μM peptide, 48 hours
Method in brief: as §4

[11] = tested on: PD-L1; test: Immunofluorescence (confocal) of PD-L1 in MDA-MB-231 cells, Example 6; type: cell-based, human; settings: 50 μM, 72 hours
Description: (§5) Confocal laser scanning microscopy was employed to investigate the effect of P1, P2 and P3 (synthesized in accordance with Example 5) on the nuclear expression of PD-L1 and acetylated PD-L1 (PDL1-Ac) (FIG. 9).
(§6) 1×10^4 MDA-MB-231 cells were seeded onto coverslips in 12 well plates with DMEM media overnight. Cells were treated with 50 μM P1, P2, P3 or P4 or vehicle (water) for 72 hours. Treated cells were fixed with 3.7% formaldehyde, and then permeabilised by incubating with 1% Triton X-100 for 20 min. Cells were then probed with a rabbit anti-PD-L1 antibody (Santa Cruz Biotechnology) or rabbit anti-acetylated PD-L1 (generated as described above) and visualized with a donkey anti-rabbit AF 488. Cover slips were mounted on glass microscope slides with ProLong Diamond Antifade reagent (Life Technologies). Protein targets were localized using confocal laser scanning microscopy. Single 0.5 μm sections were obtained using a Leica DMI8 microscope using 100× oil immersion lens running LAX software. The final image was obtained by averaging four sequential images of the same section. Digital images were analyzed using ImageJ software as described above.

[12] = tested on: PD-L1; test: Immunofluorescence of PD-L1 in MDA-MB-231 cells, Example 14; type: cell-based, human; settings: 50 μM, 72 hours
Description: as §1

[13] = tested on: PD-L1 acetylated at lysine 263; test: Immunofluorescence (confocal) of acetylated PD-L1 in MDA-MB-231 cells, Example 6; type: cell-based, human; settings: 50 μM, 72 hours
Description: as §5, §6

SMILES	expression / nuclear localization of DMNTI [1]	CSV expression [2]	PD-1 nuclear localization [3]	p300 nuclear expression [4]	colocalization of acetylated PD-L1 and p300 [5]	PD-L1 nuclear localization [6]	CD44^hiCD24^lo CSC % [7] [%]	COI/Single Cells/Live/CD44^hiCD24^lo CSCs Count [7]	COI (Cell Count) [8]	COI, Live Single Cells (Cell Count) [8]	COI, Single (Cell Count) [8]	Total Cell Count [8]	Viable Cells (%) [8] [%]	expression of SNAI1 [9]	% Viable Cells [10] [%]	COI Count [10]	COI/Single Cell Count [10]	COI/Single Cells/Live Count [10]	Total Count [10]	nuclear expression of PD-L1 [11]	also measured
CCCCCCCCCCCCCC(=O)N[C@@H](CC(C)C)C(=O)N[C@H](C(=O)N[C@@H](Cc1ccccc1)C(=O)N[C@H](C(=O)N[C@@H](Cc1ccccc1)C(=O)N[C@@H](CCCNC(=N)N)C(=O)N[C@@H](CC(C)C)C(=O)N[C@@H](CCCNC(=N)N)C(=O)N[C@@H](CCCCN)C(=O)NCC(=O)N[C@@H](CCCNC(=N)N)C(=O)N[C@@H](CCSC)C(=O)N[C@@H](CCSC)C(=O)N[C@@H](CC(=O)O)C(=O)N[C@H](C(=O)N[C@@H](CCCCN)C(=O)N[C@@H](CCCCN)C(N)=O)C(C)C)[C@@H](C)CC)[C@@H](C)O [Peptide P1, Myristoyl-LTFIFRLRKGRMMDVKK-NH2] (Myristoyl-LTFIFRLRKGRMMDVKK-NH2)	significantly abrogated	significantly inhibited	significantly inhibited	significantly decreased	significantly decreased	significantly inhibited	4.36	233	2038	1395	1523	4339	91.60	uniformly inhibited	95.65	6567	5585	5342	10000	inhibited	nuclear localization of PD-L1 [12]: significantly inhibited; Fn/c of acetylated PD-L1 [13]: significantly reduced; total nuclear fluorescence intensity (TNFI) of acetylated PD-L1 [13]: significantly reduced
CCCCCCCCCCCCCC(=O)N[C@@H](CC(C)C)C(=O)N[C@H](C(=O)N[C@@H](Cc1ccccc1)C(=O)N[C@H](C(=O)N[C@@H](Cc1ccccc1)C(=O)N[C@@H](CCCNC(=N)N)C(=O)N[C@@H](CC(C)C)C(=O)N[C@@H](CCCNC(=N)N)C(=O)N[C@@H](CCC(N)=O)C(=O)NCC(=O)N[C@@H](CCCNC(=N)N)C(=O)N[C@@H](CCSC)C(=O)N[C@@H](CCSC)C(=O)N[C@@H](CC(=O)O)C(=O)N[C@H](C(=O)N[C@@H](CCCCN)C(=O)N[C@@H](CCCCN)C(N)=O)C(C)C)[C@@H](C)CC)[C@@H](C)O [Peptide P2, Myristoyl-LTFIFRLRQGRMMDVKK-NH2] (Myristoyl-LTFIFRLRQGRMMDVKK-NH2)	significantly abrogated	significantly inhibited	significantly inhibited	significantly decreased	significantly decreased	significantly inhibited	2.82	123	6317	4402	4580	12706	96.11	uniformly inhibited	97.19	5603	4482	4356	10000	inhibited	nuclear localization of PD-L1 [12]: significantly inhibited; Fn/c of acetylated PD-L1 [13]: significantly reduced; total nuclear fluorescence intensity (TNFI) of acetylated PD-L1 [13]: significantly reduced
CCCCCCCCCCCCCC(=O)N[C@@H](CC(C)C)C(=O)N[C@H](C(=O)N[C@@H](Cc1ccccc1)C(=O)N[C@H](C(=O)N[C@@H](Cc1ccccc1)C(=O)N[C@@H](CCCNC(=N)N)C(=O)N[C@@H](CC(C)C)C(=O)N[C@@H](CCCNC(=N)N)C(=O)N[C@@H](CCCCNC(C)=O)C(=O)NCC(=O)N[C@@H](CCCNC(=N)N)C(=O)N[C@@H](CCSC)C(=O)N[C@@H](CCSC)C(=O)N[C@@H](CC(=O)O)C(=O)N[C@H](C(=O)N[C@@H](CCCCN)C(=O)N[C@@H](CCCCN)C(N)=O)C(C)C)[C@@H](C)CC)[C@@H](C)O [Peptide P3, Myristoyl-LTFIFRLRK(Ac)GRMMDVKK-NH2] (Myristoyl-LTFIFRLRK(Ac)GRMMDVKK-NH2)	significantly abrogated	significantly inhibited	significantly inhibited	significantly decreased; also recorded: greatest effect	significantly decreased	significantly inhibited	3.26	162	6874	5099	5237	20311	97.36	uniformly inhibited	98.47	6007	5039	4962	10000	inhibited	nuclear localization of PD-L1 [12]: significantly inhibited; Fn/c of acetylated PD-L1 [13]: significantly reduced; total nuclear fluorescence intensity (TNFI) of acetylated PD-L1 [13]: significantly reduced

— patent publication US20200339691A1, “PROTEINACEOUS MOLECULES AND USES THEREFOR” (priority 2018, published 2020)
